From patent US8987449B2, “Medicine for treating ischemic brain injury and its sequelae, and preparation method thereof” (Haimin Lei, priority 2011, dated 2015)

What was measured:
VEGF = VEGF expression in the cortex infarction zone (immunohistochemistry SP two-step method); format: in vivo, rat; details: MCAO rats, vs model group
[1] = tested on: rat primary cortical neurons; assay: Proliferation of primary neuronal cells by MTT and morphology observation; format: cell-based; details: for MTT(A540), 24 h after the administration: normal neurons, control 0.7567 ± 0.1109
Description: SD pregnant rats: pregnant for 16-18 d, certificate number: SCXK (Jing) 2006-0009, provided by BeiJing Vital River Laboratories.
LQC-T4 (prepared by the method of example 5), the purity was ≧98%, determined by high performance liquid chromatography (HPLC), which met the requirement of the experiment. The powder was carefully sealed and preserved at 4° C. The prepared LQC-T4 was dissolved using dimethyl sulfoxide and made into […] storing liquid for use.
Referring to the document [HongQingtao, TangYipeng, Neurons of cerebral cortex of newborn rats in in vitro primary culture, Chinese Journal of Neuroanatomy, 1994, 10(3):259-262], the pregnant 16-18 d SD rat was executed by dislocation. The fetal rat was taken out in an aseptic environment, the meninges and blood steak were stripped, the cortex was separated and cut into 1 mm^3 tissue block (all carried out on ice). The tissue block was digested at 37[…] with 0.1% pancreatic enzyme-0.02% EDTA for 20 min. Digesting was stopped using DMEM containing fetal calf serum and the number of the cells was adjusted to 5×10^5 cells ml^−1. The resultant cells were inoculated into a 96 well plate treated by 0.001% polylysine and the plate was put in a 37° C. 5% CO2 incubation box to be cultured. The cultivation liquid was changed (totally) after 48 h and add adenine arabinoside was added (final concentration is 5 μM) to inhibit the excessive proliferation of non-neurons. The cultivation liquid was changed after 48 h with fresh cultivation liquid and culture was continued. And the cultivation liquid was changed every 3 days afterward.
The cultivation liquid was sucked away on the eighth day of neuron culture. DMEM culture-medium containing 0.15% DMSO was added to the blank group, while 60 μM, 30 μM, 15 μM LQC-T4, 60 μM tetramethylpyrazine and 60 μM vanillic acid were respectively added to the administration group. Ten parallel wells were set as a group. And they were put into a 37° C., 5% CO2 incubation box to continue culturing for 24 h.
5 mg/ml MTT 20 μl was added to each well at the time of 4 h before the experiment ended and the cultivation liquid was sucked away. DMSO 200 μl was added to each well. When the purple particles were completely dissolved, the enzyme-linked immune assay was used to measure the optical density at 540 nm.
The SAS 8.2 statistical software was used to carry out the one-way ANOVA variance analysis and the difference among the groups were compared by t-test.

ICR white mice = assay: Acute toxic experiment of mice by oral administration; format: in vivo, mouse; design: key to Animal reaction in 14 days after the administration: appearance / Animal reaction in 14 days after the administration: behavior / Animal reaction in 14 days after the administration: hair / Animal reaction in 14 days after the administration: respiration / Animal reaction in 14 days after the administration: posture / Animal reaction in 14 days after the administration: reaction: ✓ means normal; details: for Animal reaction in 14 days after the administration: death: 10 animals; for Animal reaction in 14 days after the administration: death / Animal reaction in 14 days after the administration: appearance / Animal reaction in 14 days after the administration: behavior / Animal reaction in 14 days after the administration: hair / Animal reaction in 14 days after the administration: posture / Animal reaction in 14 days after the administration: reaction / Animal reaction in 14 days after the administration: respiration: oral 3 x 1800 mg/kg (5400 mg/kg) in one day
Description: ICR white mice (half female and half male, 18-22 g, experiment animal certificate No.: SCXK (Jing) 2006-0009);
LQC-T4 (white powder (self made); and LQC-T4 4500 mg was dissolved into 0.5% sodium carboxymethyl cellulose 100 ml and then suspended by supersonic wave. The suspension was used in situ).
The qualified animals were quarantined and weighed before the administration. The animals were divided into groups randomly by weight. The intragastric administration tool was used for mice to carry out the intragastric administration. The mice were fasted but not water-deprived (continuously for 14 h) overnight before being administrated. The mice were administrated at 9:00 AM for the first time (1800 mg/kg) on the present administration day and observed continuously for 1 h. The mice were administrated for the second time (1800 mg/kg) at an interval of 6 h since the first administration and observed continuously for 1 h. The mice were administrated for the third time (1800 mg/kg) at an interval of 6 h since the second administration, observed continuously for 1 h and then the mice were fed.

[2] = tested on: rat cortex neurons after cerebral ischemia; assay: Brain histopathologic morphology after cerebral ischemia (HE staining of cortex); format: in vivo; details: MCAO rats, compared with model group
Description: The same as effect example 4
10% chloral hydrate (0.35 g/kg) was injected into the abdominal cavity of a rat to anesthetize thereof. The thoracic cavity was cut to expose the heart fully. It was intubated through left ventricle. Firstly, it was washed with 37[…] saline solution 300 ml and perfused with pre-cooled 4% paraformaldehyde phosphate buffer solution (pH 7.2). When the rat was adequately fixed and the body was stiff, the head was cut and the brain was taken rapidly. And the brain was dipped into 4% paraformaldehyde solution and fixed for 24 h. Next, it was put into tissue vacuum hydroextractor, was dehydrated with gradient ethanol, made transparent with xylene, and imbedded into paraffin. 3-5 examples were taken for each group. And then 3 mm-4 mm tissue block from chiasma opticum towards caudal end at coronal position was taken, wherein the thickness of brain slice was 3 μm.
The rat cortex damage after cerebral ischemia and the effect of the medicine were observed through HE staining.

COc1cc(C(=O)OCc2nc(C)c(C)nc2C)ccc1OCc1nc(C)c(C)nc1C [LQC-T4, (3,5,6-trimethylpyrazine-2-yl)methyl 3-methoxy-4-((3,5,6-trimethylpyrazine-2-yl)methoxy) benzoate]
VEGF expression in the rat cerebral infarction zone (VEGF; 60 mg/kg small dosage group): more than that of the model group
VEGF expression in the rat cerebral infarction zone (VEGF; 120 mg/kg large dosage group): more than that of the model group
MTT(A540), 24 h after the administration ([1]; 15 μM): 0.9175 ± 0.2300
MTT(A540), 24 h after the administration ([1]; 30 μM): 0.9114 ± 0.1599
MTT(A540), 24 h after the administration ([1]; 60 μM): 0.8106 ± 0.2415
promoting effect on the growth of normal neurons ([1]; 24 h after the administration, P>0.05, result in words): greater than that of the tetramethylpyrazine group and the vanillic acid group
morphology observation of primary neuronal cells ([1]; phase contrast microscope, vs normal group): more prosperous in growth and their protrusions formed a network
Animal reaction in 14 days after the administration: death (ICR white mice; mice ♀): 0
Animal reaction in 14 days after the administration: appearance (ICR white mice; mice ♀): ✓
Animal reaction in 14 days after the administration: behavior (ICR white mice; mice ♀): ✓
Animal reaction in 14 days after the administration: hair (ICR white mice; mice ♀): ✓
Animal reaction in 14 days after the administration: posture (ICR white mice; mice ♀): ✓
Animal reaction in 14 days after the administration: reaction (ICR white mice; mice ♀): ✓
Animal reaction in 14 days after the administration: respiration (ICR white mice; mice ♀): ✓
Animal reaction in 14 days after the administration: death (ICR white mice; mice ♂): 0
Animal reaction in 14 days after the administration: appearance (ICR white mice; mice ♂): ✓
Animal reaction in 14 days after the administration: behavior (ICR white mice; mice ♂): ✓
Animal reaction in 14 days after the administration: hair (ICR white mice; mice ♂): ✓
Animal reaction in 14 days after the administration: posture (ICR white mice; mice ♂): ✓
Animal reaction in 14 days after the administration: reaction (ICR white mice; mice ♂): ✓
Animal reaction in 14 days after the administration: respiration (ICR white mice; mice ♂): ✓
death in 12 h after the administration (ICR white mice; mice, oral 3 x 1800 mg/kg): No death was observed
toxic reaction at the maximum dosage (ICR white mice; mice, oral, maximum dosage of 5400 mg/kg, observed continuously for 14 days): No toxic reaction was observed
remaining of the complete neuron of the rat cortex after cerebral ischemia (HE staining) ([2]; 60 mg/kg): a larger amount of neurons which were distinct and complete in structure
remaining of the complete neuron of the rat cortex after cerebral ischemia (HE staining) ([2]; 120 mg/kg): a larger amount of neurons which were distinct and complete in structure

Cc1nc(C)c(C)nc1C [TMP, tetramethylpyrazine, reference compound]
VEGF expression in the rat cerebral infarction zone (VEGF; TMP group): more than that of the model group
MTT(A540), 24 h after the administration ([1]; 60 μM): 0.8710 ± 0.1350
remaining of the complete neuron of the rat cortex after cerebral ischemia (HE staining) ([2]; TMP group): a lower level of damage compared with the model group
